Laboratory results taken from PMC7473840, “Identification of a molecular locus for normalizing dysregulated GABA release from interneurons in the Fragile X brain” (Molecular Psychiatry, 2018).

Columns and labels:
[1] = system: Kv1.2–FMRP interaction, cerebellar homogenates; test: Co-IP of Kv1.2 with FMRP (anti-FMRP antibody), peptide blocking; format: binding; settings: WT mouse cerebellar homogenates; 250 μM peptide added prior to anti-FMRP antibody; immunoblot; at least in triplicate
Method: Whole cerebellums from WT and Fmr1 KO mice were homogenized in ice-cold Pull-Down buffer (1% Lubrol, 50 mM Tris–HCl, pH 7.4, 10 nM Na-orthovanadate, 30 mM Na-pyrophosphate, 50 mM NaF, 20 μm ZnCl2, and 0.25 mM PMSF, with the addition of protease inhibitor cocktail) using a Potter-Elvehjem grinding chamber (VWR). Samples were then centrifuged at 5000g for 20 min and 500 μL of supernatants were transferred into 1.5 ml Eppendorf tubes. 1:100 dilutions of anti-FMRP (Abcam 17722), anti-Kv1.2 (K14/16; Neuromab), anti-Kv1.2 ext-c (extracellular; Alomone labs), anti-Kv1.2 N-term (NBP1-42802; Novus), or anti-GAPDH (GAPDH-71.1; 1:80,000; Sigma-Aldrich) antibodies were added to the homogenate and incubated at 4 °C under continuous agitation for 2 h. A total 30 μL of a 1:1 mixture of pre-washed protein A and protein G magnabeads (Genscript) was then added and the samples were incubated under the same conditions for another 2 h. Beads were washed 4 times with PBS-Tween (0.2% Tween w/v) and then centrifuged at 3000g for 1 min. A sample was kept to verify total protein input. Protein was disassociated from the beads with the addition of 30 μL of 2× loading buffer (4% SDS, 20% glycerol w/v, 0.1 M dithiothreitol, 100 mM Tris–HCl, pH 6.8) then submitting the samples to 3 min at 95 °C. […] Bands were quantified as previously described using the AlphaEase SA software. […]

BC–PN synapse, WT = test: sIPSCs from PNs, paired BC–PN recording, WT synapses; format: cell-based, mouse; settings: peptide 2.5 mM infused into WT BCs, before and 20 min after; n = 5-6
[2] = target: T1, recombinant full-length FMRP (isoform 1) (Homo sapiens, UniProt Q06787); test: In vitro intrinsic protein fluorescence binding assay; settings: 500–1000 μM peptide and 1 μM FMRP, 100 mM NaCl, 50 mM Na2PO4 pH 7.4, 2 mM DTT, 20 °C, excitation 287 nm
T1 construct: containing cDNA for full-length human FMRP; His-SUMO (N, cleaved yes); made in house; host or cells: Escherichia coli BL21 (DE3) Codon Plus
Method: Small Ubiquitin-like Modifier (SUMO) fusion construct containing cDNA for full-length human FMRP was generated by gene synthesis (GenScript USA Inc.) and subcloned into a pET SUMO vector (Invitrogen). […] The pET SUMO–FMRP construct was transformed into Escherichia coli BL21 (DE3) Codon Plus cells and grown at 37 °C in Lennox broth medium. Protein expression was induced with 0.5 mM isopropyl-β-D-thiogalactopyranoside when optical density reached ~0.6, followed by 18 h of additional growth at 16 °C. Cells were harvested by centrifugation and pellets stored at −20 °C. In order to purify SUMO–FMRP, thawed pellets were resuspended in lysis buffer [50 mM Tris, pH 8.0, 500 mM NaCl, 20 mM imidazole, 10% glycerol, 250 mM arginine, 5 mM benzamidine, and 2 mM dithiothreitol (DTT)], supplemented with DNAse 1 and cOmplete™ Protease Inhibitor Cocktail (Sigma-Aldrich). After cell lysis and centrifugation, the filtered supernatant was loaded onto a 20 ml NiNTA column equilibrated in the same lysis buffer. The column was extensively washed with 20 column volumes (CV) of the same buffer supplemented with 100 mM imidazole. Elution of SUMO-fusion FMRP was performed using 100–500 mM imidazole gradient, and protein-containing fractions were combined and a 6× His tagged Ulp protease was added. Cleavage of the His-SUMO tag was performed overnight in a cold room (7 °C) while dialyzing in 4 L of 50 mM Tris, pH 8.0, 500 mM NaCl, 50 mM imidazole, 10% glycerol, 250 mM arginine, 5 mM benzamidine, and 2 mM DTT. Complete cleavage of the SUMO tag by Ulp was confirmed by SDS-PAGE and the protein of interest was separated from the Ulp protease and SUMO tag by passing the cleavage reaction over a second NiNTA column. Flow-through and wash fractions containing protein of interest were combined and then loaded onto a Superdex 200 gel filtration column pre-equilibrated with the same lysis buffer.
The eluted purified proteins were analyzed by both SDS-PAGE and mass spectrometry, and the combined fractions were dialyzed three times in 5 L of Fluorescence Binding Buffer (100 mM NaCl, 50 mM Na2PO4 pH 7.4, 2 mM DTT). After filtering through a 0.22 μm GV Durapore Centrifugal Filter Unit (Millipore), FMRP concentration was determined by absorbance at 280 nm using a molar extinction coefficient of 48,360 M^−1 cm^−1, and the protein was used for binding studies with Kv1.2 C-terminal peptides.
All measurements were carried out in the Fluorescence Binding Buffer at 20 °C using a PTI Quanta Master 80 Spectrofluorometer (HORIBA Scientific) by monitoring intrinsic protein fluorescence with an excitation wavelength of 287 nm. Prior to performing a binding titration for any of the peptides, a full emission spectrum (300–450 nm) of the peptide:FMRP complex was compared to that of apo-FMRP. Differences in the spectrum of the complex (500–1000 μM peptide and 1 μM FMRP) and apo-FMRP at the same concentration (i.e., fluorescence quenching, enhancement or shifts of the emission maximum) indicated binding. For each of these peptides, binding measurements were performed by adding aliquots of saturated 1 µM FMRP:peptide complex (titration solution) to 400 μL of 1 μM apo-FMRP solution as described by Wells and Di Cera. Briefly, at each titration step, a volume vD was removed from the cuvette containing the apo-FMRP and replaced by an equal volume of the titration solution (1 μM FMRP: 200–500 μM peptide complex). As a result, the concentration of FMRP (1 μM) and total volume of solution in the cuvette, V = 400 μL, remained constant while the concentration of the peptide at the ith titration step, [peptide]i, was increased, and given by
[peptide]i = [peptide]0^i.D^i+[peptide]∞^i.(1 − D^i),
where, [peptide]0 was the initial peptide concentration in the cuvette, [peptide]∞ was the peptide concentration in the titration solution, and D was the dilution factor, D = (V − vD)/V. […]

[3] = system: PNs, WT cerebellar slices; test: Spontaneous firing of PNs, cell-attached, WT; format: cell-based, mouse; settings: 10 μM
[4] = system: PNs, Fmr1-KO cerebellar slices; test: Spontaneous firing of PNs, cell-attached, Fmr1-KO; format: cell-based, mouse; settings: 10 μM, Fmr1-KO

Row | Compound | inhibition of Kv1.2–FMRP binding (co-IP) [1] | amplitude and frequency of sIPSCs (BC–PN synapse, WT) | change of fluorescence emission spectrum of FMRP (binding) ([2]; listed as non-phosphorylated) | change of fluorescence emission spectrum of FMRP (binding) ([2]; listed as non-phosphorylated Kv1.2 C-terminal peptide) | spontaneous firing of PNs, WT [3] | spontaneous firing of PNs, KO [4]
1 | PKIPSSPDLKKSRSASTISKSD [Kv436-457] | Neither the non-phosphorylated peptide with the identical sequence (Kv436-457, ^436PKIPSSPDLKKSRSASTISKSD^457) nor the doubly-phosphorylated scrambled peptide (IKPSTLSDSRAKpSSDPpSKPSIK) inhibited the Kv1.2–FMRP binding activity | but not the non-phosphorylated or scrambled phosphorylated peptide, significantly elevated the amplitude and frequency of sIPSCs | no change in the fluorescence emission spectrum of FMRP | no binding |  | 
2 | NS(=O)(=O)c1cccc2c1c([N+](=O)[O-])cc1nc(O)c(O)nc12 [NBQX] |  |  |  |  | little effect on the spontaneous firing | little effect on the spontaneous firing
